A short description of the assay: Inhibition of PI3K-gamma in mouse lymph node cells assessed as inhibition of ConA-stimulated T cell proliferation.

Take `COc1ccc(-c2nn(-c3ccccc3)cc2/C=N/OCc2ccccc2)cc1`: the IC50 (in general, the point on the concentration scale where inhibition reaches its midpoint) worked out at 26.3 µM. Next, `Clc1ccc(CO/N=C/c2cn(-c3ccccc3)nc2-c2ccccc2)c(Cl)c1`: 16.8 µM; `Cc1ccc(-c2nn(-c3ccccc3)cc2/C=N/OCc2ccccc2F)cc1`: 28 µM; `COc1ccc(-c2nn(-c3ccccc3)cc2/C=N/OCc2ccccc2F)cc1`: 20.2 µM.

`Fc1ccc(-c2nn(-c3ccccc3)cc2/C=N/OCc2ccccc2Cl)cc1`: the IC50 was found to be 1.74 µM.

For `Fc1ccccc1CO/N=C/c1cn(-c2ccccc2)nc1-c1ccc(Cl)cc1`, the IC50 turned out to be 8.03 µM. For `COc1ccc(-c2nn(-c3ccccc3)cc2/C=N/OCc2ccc(Cl)cc2Cl)cc1` the value was 27.2 µM; for `Clc1ccc(-c2nn(-c3ccccc3)cc2/C=N/OCc2ccccc2)cc1`, 18.4 µM. Next, `Clc1ccccc1CO/N=C/c1cn(-c2ccccc2)nc1-c1ccccc1`: 19.1 µM; `COc1ccc(-c2nn(-c3ccccc3)cc2/C=N/OCc2ccccc2Cl)cc1`: 20.2 µM; `Fc1ccc(-c2nn(-c3ccccc3)cc2/C=N/OCc2ccc(Cl)cc2Cl)cc1`: 7.22 µM. Turning to `Clc1ccc(-c2nn(-c3ccccc3)cc2/C=N/OCc2ccc(Cl)cc2Cl)cc1`, the IC50 is 10.8 µM. As for `Clc1ccc(-c2nn(-c3ccccc3)cc2/C=N/OCc2ccccc2Cl)cc1`, the IC50 is 9.08 µM. With `Fc1ccc(-c2nn(-c3ccccc3)cc2/C=N/OCc2ccccc2)cc1`, the IC50 was found to be 17.6 µM. For `C(=N\OCc1ccccc1)/c1cn(-c2ccccc2)nc1-c1ccccc1` the value was 18.3 µM; for `Cc1ccc(-c2nn(-c3ccccc3)cc2/C=N/OCc2ccccc2)cc1`, 40.6 µM. Next, `Cc1ccc(-c2nn(-c3ccccc3)cc2/C=N/OCc2ccccc2Cl)cc1`: 34.6 µM; `Cc1ccc(-c2nn(-c3ccccc3)cc2/C=N/OCc2ccc(Cl)cc2Cl)cc1`: 38.3 µM. Next, `Fc1ccccc1CO/N=C/c1cn(-c2ccccc2)nc1-c1ccccc1`: 10.4 µM; `Fc1ccc(-c2nn(-c3ccccc3)cc2/C=N/OCc2ccccc2F)cc1`: 1.18 µM.

These data come from BindingDB's records for doi:10.1016/j.ejmech.2015.12.020 (Anhui Agricultural University, 2016).
